Measured values as given in patent publication US20230257374A1, “NOVEL KRAS G12C PROTEIN INHIBITOR, PREPARATION METHOD THEREFOR, AND USE THEREOF” (INNOVENT BIOLOGICS (SUZHOU) CO., LTD., priority 2019, published 2023).
pIC50: −log10 of the molar value. Like-named read-outs stand apart in the source and are kept apart here.

Assays:
in vitro [1] = details: human, Caco-2, pH 7.4
Experimental: (§1) Drug penetration test: the Transwell culture plate was retrieved from the incubator. […] All samples were prepared in double parallel. The integrity of the cell monolayer membrane after 2 hours of incubation was assessed using leakage of fluorescein; fluorescein stock solution was diluted with HBSS (25 mM HEPES, pH 7.4) to a final concentration of 100 μM. 100 μL of fluorescein solution was added to each well of the upper Transwell plate and 300 μL of HBSS (25 mM HEPES, pH 7.4) was added to each well of the lower receiving plate; after incubation at 37° C. for 30 min, 80 μL of the solution was pipetted from the upper and lower layers of each well to a new 96-well plate.
(§2) The apparent permeability coefficients (Papp, unit: cm/s) of the compounds in Caco-2 cells were calculated from the specific concentrations at the acceptor and donor ends, and the specific calculation formula is as follows: […]
(§3) where VA represents the volume of the acceptor end solution (0.3 mL for Ap→Bl, 0.1 mL for Bl→Ap); Area represents the area of the Transwell-96 well plate (0.143 cm^2); time represents the incubation time (unit: s); [drug]acceptor represents the drug concentration (ratio of peak area to internal standard area) at the acceptor end; [drug]initial, donor represents the drug concentration at the donor end (ratio of peak area to internal standard area).
(§4) The efflux ratio was calculated as follows: […]
(§5) where Papp (B-A) represents the apparent permeability coefficient from base end to top end; Papp (A-B) represents the apparent permeability coefficient from top end to base end.

[2] = Stability test in human plasma
[3] = system: PC-9 cell line (K-RAS wild type); test: cells; type: cell-based; details: Homo sapiens, PC-9, 96 h; 3D culture, CellTiter-Glo 3D, read on day 4
Experimental: (§6) a) On day 1, seed cells were placed in T75 a flask. b) On day 3, the medium was taken out and washed once with DPBS. c) Cells were trypsinized with 2 mL TrypLE™ Express enzyme at room temperature (RT) or 37° C. until cells detached. d) 5 mL of fresh medium was added to suspend the cells, and then the suspension was centrifuged at 1000 rpm and room temperature for 5 min. e) The supernatant was discarded, and the cells were resuspended in 5 mL of fresh medium and counted using Countess™ H. f) The cells were seeded back into the T75 flask for further culture or placed into an assay plate for 3D cell proliferation assay.
(§7) The cells were seeded at a density of 600 cells/well in a 384-well plate with 40 μL of medium per well and a final DMSO concentration of 0.5%. b) On day 4, a 3D CTG reagent was added to each well, followed by shaking at room temperature for 1 h. c) The signals were recorded using Envision.
(§8) a) Robustness was examined using 0.5% DMSO and data of blank control medium: H=mean (DMSO); L=mean (medium); SD (H)=STDEV (DMSO); SD (L)=STDEV (medium);
(§9) Y=peak valley value+(peak top value−peak valley value)/(1+10^((Log IC50−X)×HillSlope));
(§10) X: logarithm of compound concentration; Y: percent inhibition (% inhibition); Peak top and peak valley values: the plateau period units are the same as Y; log IC50: the same logarithmic unit as X; HillSlope: slope coefficient or Hill slope.

[4] = system: MIA PaCa-2 cell line (K-RAS G12C); test: cells; type: cell-based
Experimental: as §6, §7, §8, §9, §10

[5] = system: H1373 cell line (K-RAS G12C); test: cells; type: cell-based
Experimental: as §6, §7, §8, §9, §10

[6] = system: NCI-H358 tumor (K-RAS G12C mutation); type: in vivo, BALB/c nude mice; details: for Tumor regression: animals with regression / group of 8
Experimental: The cells were digested with trypsin-EDTA twice a week for passaging as per conventional practice. When the cell saturation reached 80%-90% and a required amount was achieved, the cells were collected and counted for later use. […] 5% DMSO/5% Solutol/90% water was used as a blank control. 3) Tumor inoculation and drug administration: BALB/c nude mice, female, 6-8 weeks old, weighing 18-20 g. The experiment started after 3-7 days of adaptive feeding. 0.1 mL of NCI-H358 cells (5×10^6 cells) were inoculated subcutaneously on the right back of each mouse. The mice were grouped for administration when the average tumor volume reached approximately 150 mm^3. The animals were weighed before administration and the tumor volume was measured. Grouping was randomly performed according to the tumor volume.
Animals were monitored daily for health and death, and routine examinations include observation of the effect of tumor growth and drug treatment on the daily performance of the animals, such as behavioral activities, food and water intake, weight changes (measured once every other day), appearance, or other abnormal conditions. Animal mortality and side effects within each group were recorded based on the number of animals in the group.
Tumor diameters were measured 2-3 times weekly using a vernier caliper.
The tumor volume was calculated as follows: […]
where a and b represent the long and short diameters of the tumor, respectively.
The anti-tumor therapeutic effect of the compound was evaluated by tumor growth inhibition rate TGI (%) or relative tumor proliferation rate T/C (%).
TGI (%) was calculated as follows: […]
T/C (%) was calculated as follows: […]
where TRTV represents the relative tumor volume of the treatment group; CRTV represents the relative tumor volume of the solvent control group.
Based on the results of tumor measurement, the relative tumor volume (RTV) was calculated as follows: […]
where V0 represents the average tumor volume measured at the time of grouping and administration (i.e., d0), Vt represents the average tumor volume in a certain measurement, and TRTV and CRTV take the data on the same day.
After the completion of the experiment, tumors were weighed, and the percentage of Tweight/Cweight was calculated, where Tweight and Cweight represent the tumor weights of the treatment group and the solvent control group, respectively.
Data calculation and analysis: T test was employed for comparison between two groups. One-way ANOVA was employed for comparison between three or more groups. If there is a significant difference in F-values, multiple comparisons should be made after ANOVA analysis. All data analyses were performed with SPSS 17.0. p<0.05 was defined as a significant difference.

KRAS G12C protein = molecular target: T1, KRAS G12C protein (Homo sapiens, UniProt P01116, G12C); test: ERK protein phosphorylation assay (p-ERK) in H358 cells; type: cell-based; parameters: scale not given here; details: H358 cells expressing KRAS G12C protein, 3 h incubation with compound; read-out: IC50, inhibiting phosphorylation of KRAS G12C protein-mediated downstream signaling (p-ERK)
T1 construct: H358 cells (ATCC, CRL-5807) expressing KRAS G12C protein; host or cells: H358 (NCI-H358) cells
Experimental: The cells were cultured in a 5% CO2 cell incubator for 16 h. The serially diluted compound was added to the cell medium with Echo550 at a final DMSO concentration of 0.5%, and the incubation was continued for 3 h. Then 8% paraformaldehyde (Solarbio, P1112) was added at 40 μL/well, followed by incubation at room temperature for 20 min. After one washing with PBS, cold 100% methanol was added at 40 μL/well for permeabilization for 10 min. […] Washing with PBST was performed 3 times, with 2 min of incubation for each washing. […] Washing with PBST was performed 3 times, with 2 min of incubation for each washing. Finally, the cell culture plate was inverted and centrifuged at 1000 rpm for 1 min, after which fluorescence signals were read using Odyssey CLx.

[7] = system: H358 cell line (K-RAS G12C); test: cells; type: cell-based, human
Experimental: as §6, §7, §8, §9, §10

[8] = human, plasma
in vitro [9] = details: microsomes
Experimental: To examine the in vitro metabolic stability of the test compounds in liver microsomes of different species, representative compounds were selected, and their stability was evaluated by measuring the concentration of the test compounds in the incubation system using LC/MS/MS and calculating their intrinsic clearance in the microsome system.
The method is specifically as follows: each compound was first dissolved in DMSO to prepare a 200 μM working solution and added to the system solution at the time of testing to form a solution with a final concentration of 1 μM.
The microsomes were stored in a −80° C. freezer.
Preparation of incubation system: an incubation system was prepared as described in the table below.
25 μL, of NADPH or phosphate buffered saline was transferred to the incubation system described above, and 2 μL, of 200 μM of the test compound or verapamil was added. The sample with NADPH added was prepared in duplicate; the NADPH negative sample was prepared in single parallel. 30 μL, of suspension was taken at 0.5, 5, 15, 30 and 60 minutes. The reaction system was terminated by adding 180 μL, of acetonitrile containing an internal standard and vortexed for 10 min. […] 100 μL, of the supernatant was transferred to a feeding plate, and 100 μL, of purified water was added. The mixture was well mixed for UPLC-MS/MS analysis.
The results based on the data were obtained by calculation according to the peak area ratio, and the peak area was detected through an extracted ion chromatogram.
The slope value (k) was determined by linear fitting of the natural logarithm of drug elimination percentage over time.

Caco-2 cells = test: in vitro; details: Caco-2
Experimental: as §1, §2, §3, §4, §5

T1 sequence (P01116 1-188 isoform P01116-2 G12C): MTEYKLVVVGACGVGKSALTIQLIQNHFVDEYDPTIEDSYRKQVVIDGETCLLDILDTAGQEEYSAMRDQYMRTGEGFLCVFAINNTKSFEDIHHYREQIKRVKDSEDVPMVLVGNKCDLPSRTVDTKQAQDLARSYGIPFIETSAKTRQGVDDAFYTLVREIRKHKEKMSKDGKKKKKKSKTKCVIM

For `C=CC(=O)N1CCN(c2nc(=O)n(-c3c(C)ccnc3C(C)C)c3nc(-c4c(O)cccc4F)c(F)cc23)[C@@H](C)C1` [AMG510], the Papp A→B at 2 h, 10 μM (in vitro [1]) was 0.6 ×10⁻⁶ cm/s and the Papp B→A at 2 h, 10 μM (in vitro [1]) was 27.4 ×10⁻⁶ cm/s.

For `[2H]C([2H])([2H])c1cccc2cccc(N3CCc4c(nc(OC[C@@H]5CCCN5C([2H])([2H])[2H])nc4N4CCN(C(=O)C=C)[C@@H](CC#N)C4)C3)c12` [Compound 17, 2-((S)-1-acryloyl-4-(7-(8-(methyl-d3)naphthalen-1-yl)-2-(((S)-1-(methyl-d3)pyrrolidin-2-yl)methoxy)-5,6,7,8-tetrahydropyrido[3,4-d]pyrimidin-4-yl)piperazin-2-yl)acetonitrile], the “Remaining percentage (%) 0 min” value ([2]; human plasma, 37° C., 0 min) was 100.00%, the “Remaining percentage (%) 30 min” value ([2]; human plasma, 37° C., 30 min) was 97.00% and the “Remaining percentage (%) 60 min” value ([2]; human plasma, 37° C., 60 min) was 92.97%. For the same compound, the “Remaining percentage (%) 120 min” value ([2]; human plasma, 37° C., 120 min) was 78.91%, the “Remaining percentage (%) 180 min” value ([2]; human plasma, 37° C., 180 min) was 59.98% and the “Remaining percentage (%) 240 min” value ([2]; human plasma, 37° C., 240 min) was 47.82%. The half-life at 5 μM ([2]; human, plasma) was 3.63 h, the pIC50 [3] was 5.33 and the pIC50 ([4]; Homo sapiens, MIA PaCa-2, 96 h, 3D culture, CellTiter-Glo 3D, read on day 4, read-out: MIA PaCa-2 (K-RAS G12C) IC50) was 9.36. The “Selectivity (fold number of mutant vs. wild type)” value ([4]; PC-9 IC50 vs. MIA PaCa-2 IC50) was 10659 fold, the pIC50 ([5]; Homo sapiens, NCI-H1373, 96 h, 3D culture, CellTiter-Glo 3D, read on day 4, read-out: H1373 (K-RAS G12C) IC50) was 9.49 and the “Selectivity (fold number of mutant vs. wild type)” value ([5]; PC-9 IC50 vs. H1373 IC50) was 14656 fold. The “Day 0 Tumor volume (mm^3) Vaverage ± SEM” value ([6]; Day 0 (at grouping, before administration), 15 mg/kg PO QD group) was 151 ± 10 mm^3, the “Day 21 Tumor volume (mm^3) Vaverage ± SEM” value ([6]; Day 21, 15 mg/kg PO QD) was 90 ± 12 mm^3 and the “Tumor inhibition rate TGI (%)” value ([6]; Day 21, 15 mg/kg PO QD) was 110.7%. The Tumor regression ([6]; Day 21, 15 mg/kg PO QD) was 8/8, the Tumor regression ([6]; Day 21, 15 mg/kg PO QD, listed as compound 17) was “the tumors in all of the animals regressed” and the “Day 0 Body weight (g) Waverage ± SEM” value ([6]; mouse, in vivo, po, 15 mg/kg) was 22.6 ± 0.7 g. The pIC50 (KRAS G12C protein) was greater than 6.00, the pIC50 ([7]; Homo sapiens, NCI-H358, 96 h, 3D culture, CellTiter-Glo 3D, read on day 4, read-out: H358 (K-RAS G12C) IC50) was 9.47 and the “Selectivity (fold number of mutant vs. wild type)” value ([7]; PC-9 IC50 vs. H358 IC50) was 13794 fold.

Compound `C[C@H]1O[C@@H](O[C@H]2[C@@H](O)C[C@H](O[C@H]3[C@@H](O)C[C@H](O[C@H]4CC[C@@]5(C)[C@H](CC[C@@H]6[C@@H]5C[C@@H](O)[C@]5(C)[C@@H](C7=CC(=O)OC7)CC[C@]65O)C4)O[C@@H]3C)O[C@@H]2C)C[C@H](O)[C@@H]1O` [Digoxin] has a Papp A→B at 2 h, 10 μM (in vitro [1]) of 0.25 ×10⁻⁶ cm/s, a Papp B→A at 2 h, 10 μM (in vitro [1]) of 16.4 ×10⁻⁶ cm/s and an efflux ratio at 2 h, 10 μM (in vitro [1]) of 65.2.

For `C=CC(=O)N1CCN(c2nc(OC[C@@H]3CCCN3C)nc3c2CCN(c2cccc4cccc(C)c24)C3)C[C@@H]1CC#N` [MRTX-1257, reference compound], the “t1/2” value [8] was 1.608 h, the “Remaining percentage (%) 0 min” value ([8]; 0 h) was 100.00% and the “Remaining percentage (%) 30 min” value ([8]; 0.5 h) was 88.91%. The “Remaining percentage (%) 60 min” value ([8]; 1 h) was 82.31%, the “Remaining percentage (%) 120 min” value ([8]; 2 h) was 55.64% and the “Remaining percentage (%) 180 min” value ([8]; 3 h) was 32.06%. For the same compound, the “Remaining percentage (%) 240 min” value ([8]; 4 h) was 18.12%, the “CLint (μL/min/mg protein)” value (in vitro [9]; human) was 54.30 μL/min/mg protein and the “t1/2” value (in vitro [9]; human) was 0.4263 h. For the same compound, the “CLint (μL/min/mg protein)” value (in vitro [9]; mouse) was 74.97 μL/min/mg protein, the “t1/2” value (in vitro [9]; mouse) was 0.3082 h and the Efflux ratio (Caco-2 cells) was 16.31.

For `COCCc1ccc(OCC(O)CNC(C)C)cc1` (centres unmarked) [Metoprolol], the Papp A→B at 2 h, 10 μM (in vitro [1]) was 22.6 ×10⁻⁶ cm/s, the Papp B→A at 2 h, 10 μM (in vitro [1]) was 19.5 ×10⁻⁶ cm/s and the efflux ratio at 2 h, 10 μM (in vitro [1]) was 0.86.
